Results on 13 molecules are retold here after patent publication US9062051B2, “Compounds and pharmaceutical compositions thereof for the treatment of proliferative disorders” (GALAPAGOS NV, priority 2014, dated 2015).

The target of the test is T1, EphA2 (UniProt Ref: P29317) (Homo sapiens, UniProt P29317).
T1 construct: purchased Reaction Biology
T1 sequence (P29317 24-976): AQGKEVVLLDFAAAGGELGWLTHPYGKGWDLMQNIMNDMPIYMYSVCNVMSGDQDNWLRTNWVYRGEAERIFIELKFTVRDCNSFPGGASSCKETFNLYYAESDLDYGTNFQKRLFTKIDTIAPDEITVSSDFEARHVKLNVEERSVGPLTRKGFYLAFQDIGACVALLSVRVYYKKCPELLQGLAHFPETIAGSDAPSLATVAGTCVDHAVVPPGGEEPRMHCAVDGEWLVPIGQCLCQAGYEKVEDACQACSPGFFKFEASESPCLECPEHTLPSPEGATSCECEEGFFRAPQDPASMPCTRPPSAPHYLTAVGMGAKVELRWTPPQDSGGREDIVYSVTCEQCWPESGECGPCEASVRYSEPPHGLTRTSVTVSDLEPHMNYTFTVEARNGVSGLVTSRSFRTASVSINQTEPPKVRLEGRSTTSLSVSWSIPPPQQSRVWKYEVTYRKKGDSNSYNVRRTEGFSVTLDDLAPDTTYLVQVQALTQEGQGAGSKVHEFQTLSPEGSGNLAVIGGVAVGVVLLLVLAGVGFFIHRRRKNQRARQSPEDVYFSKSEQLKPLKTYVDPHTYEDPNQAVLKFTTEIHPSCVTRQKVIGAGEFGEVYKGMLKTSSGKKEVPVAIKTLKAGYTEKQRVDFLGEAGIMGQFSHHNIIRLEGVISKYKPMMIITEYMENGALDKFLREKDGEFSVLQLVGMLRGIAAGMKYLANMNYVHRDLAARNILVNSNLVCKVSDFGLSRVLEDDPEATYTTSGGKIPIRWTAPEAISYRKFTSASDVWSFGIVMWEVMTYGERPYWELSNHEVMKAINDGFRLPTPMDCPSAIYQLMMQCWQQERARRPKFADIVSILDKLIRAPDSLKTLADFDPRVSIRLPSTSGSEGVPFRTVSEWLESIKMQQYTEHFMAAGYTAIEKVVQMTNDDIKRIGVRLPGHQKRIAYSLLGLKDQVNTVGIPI
Briefly: EphA2 assay (Reaction Biology HotSpot radioactive kinase assay). The settings on record: ATP 10 μM; read-out: EphA2 potency IC50. The format is biochemical. As for the experimental part:
Inhibition of EphA2 (UniProt Ref: P29317) by a test compound is determined by a commercially available Reaction Biology proprietary nanoliter radioactive HotSpot^SM assay (Reaction Biology, One great valley parkway, Suite 2, Malvern Pa., 19355, USA). The principle of the assay consists of the measurement of incorporated ^33P into poly[Glu:Tyr] (4:1) (0.2 mg/mL) when the substrate is phosphorylated by the enzyme using [^33P]-γ-ATP and ATP (10 μM).
To determine the IC50, a serial dilution of compound is tested starting from 10, or 3 μM (highest dilution) with a 1/3 dilution.
In the case of `Cc1ccc(NC(=O)c2cccc(C(F)(F)F)c2)cc1-c1ccc2c(CO)n[nH]c2n1` [Compound 1, N-(3-(3-(hydroxymethyl)-1H-pyrazolo[3,4-b]pyridin-6-yl)-4-methylphenyl)-3-(trifluoromethyl)benzamide], the IC50 (in general, the concentration at which inhibition is half-maximal) fell in the range of 0.01 to 25 nM. The result for `CCc1n[nH]c2nc(-c3cc(NC(=O)c4cc(C)cc(OC)c4)ccc3C)ccc12` [Compound 19, N-[3-(3-Ethyl-1H-pyrazolo[3,4-b]pyridin-6-yl)-4-methyl-phenyl]-3-methoxy-5-methyl-benzamide] reads 0.01 to 25 nM.

Take `CCc1n[nH]c2nc(-c3cc(NC(=O)c4cc(OC)cc(OC)c4)ccc3Cl)ccc12` [Compound 22, N-[4-Chloro-3-(3-ethyl-1H-pyrazolo[3,4-b]pyridin-6-yl)-phenyl]-3,5-dimethoxy-benzamide]: the IC50 was in the range of 25 to 50 nM.

As to `CCc1n[nH]c2nc(-c3cc(NC(=O)c4cc(C)cc(OCCO)c4)ccc3C)ccc12` [Compound 23, N-[3-(3-Ethyl-1H-pyrazolo[3,4-b]pyridin-6-yl)-4-methyl-phenyl]-3-(2-hydroxy-ethoxy)-5-methyl-benzamide], the IC50 fell in the range of 0.01 to 25 nM.

As for `CCc1n[nH]c2nc(-c3cc(NC(=O)c4cc(C)cc(OCCN(C)C)c4)ccc3C)ccc12` [Compound 25, 3-(2-Dimethylamino-ethoxy)-N-[3-(3-ethyl-1H-pyrazolo[3,4-b]pyridin-6-yl)-4-methyl-phenyl]-5-methyl-benzamide], the IC50 lay in the range of 0.01 to 25 nM. As for `CCc1n[nH]c2nc(-c3cc(NC(=O)c4cc(N(C)C)cc(C(F)(F)F)c4)ccc3C)ccc12` [Compound 26, 3-Dimethylamino-N-[3-(3-ethyl-1H-pyrazolo[3,4-b]pyridin-6-yl)-4-methyl-phenyl]-5-trifluoromethyl-benzamide], the IC50 lay within 50 to 100 nM.

As for `CCc1ccc(NC(=O)c2cc(OC)cc(OC)c2)cc1-c1ccc2c(CC)n[nH]c2n1` [Compound 32, N-[4-Ethyl-3-(3-ethyl-1H-pyrazolo[3,4-b]pyridin-6-yl)-phenyl]-3,5-dimethoxy-benzamide], the IC50 was 50 to 100 nM. As for `CCc1n[nH]c2nc(-c3cc(NC(=O)c4cc(OC)cc(C(F)(F)F)c4)ccc3C)ccc12` [Compound 33, N-[3-(3-Ethyl-1H-pyrazolo[3,4-b]pyridin-6-yl)-4-methyl-phenyl]-3-methoxy-5-trifluoromethyl-benzamide], the IC50 is 0.01 to 25 nM. Regarding `CCc1n[nH]c2nc(-c3cc(NC(=O)c4cc(OC)cc(OCCN)c4)ccc3C)ccc12` [Compound 39, 3-(2-amino-ethoxy)-N-[3-(3-ethyl-1H-pyrazolo[3,4-b]pyrin-6-yl)-4-methylphenyl]-5-methoxybenzamide], the IC50 fell in the range of 0.01 to 25 nM.

For `CCc1n[nH]c2nc(-c3cc(NC(=O)c4cc(OC)cc(OCCN5CCOCC5)c4)ccc3C)ccc12` [Compound 41, N-[3-(3-Ethyl-1H-pyrazolo[3,4-b]pyridin-6-yl)-4-methyl-phenyl]-3-methoxy-5-(2-morpholin-4-yl-ethoxy)-benzamide], the IC50 lay in the range of 0.01 to 25 nM. To `CCc1n[nH]c2nc(-c3cc(NC(=O)c4cc(OC)cc(OCCN)c4)cnc3C)ccc12` [Compound 44, 3-(2-Amino-ethoxy)-N-[5-(3-ethyl-1H-pyrazolo[3,4-b]pyridin-6-yl)-6-methyl-pyridin-3-yl]-5-methoxy-benzamide] belongs 50 to 100 nM.

`COc1cc(OC)cc(C(=O)Nc2ccc(C)c(-c3ccc4c([C@@H](C)O)n[nH]c4n3)c2)c1` [Compound 48, N-{3-[3-((R)-1-Hydroxy-ethyl)-1H-pyrazolo[3,4-b]pyridin-6-yl]-4-methyl-phenyl}-3,5-dimethoxy-benzamide]: the IC50 lay in the range of 25 to 50 nM. Consider `CCc1n[nH]c2nc(-c3cc(NC(=O)c4cc(OC)cc(C5CC5)c4)ccc3C)ccc12` [Compound 51, 3-Cyclopropyl-N-[3-(3-ethyl-1H-pyrazolo[3,4-b]pyridin-6-yl)-4-methyl-phenyl]-5-methoxy-benzamide], for which the IC50 was in the range of 0.01 to 25 nM.
